In patent US9296704B2, “Substituted pyrimidines as protein kinase inhibitors” (CELGENE AVILOMICS RESEARCH, INC., priority 2007, dated 2016):

Columns and labels:
ErbB1 = ErbB1 (Homo sapiens, UniProt P00533); assay: Z'-LYTE biochemical assay, ErbB1 kinase inhibition
How it was run: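 Fluorescence-based coupled-enzyme Z′-LYTE format: kinase phosphorylation of a peptide substrate is read by differential protease cleavage of phosphorylated versus non-phosphorylated peptide.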

ErbB2 = ErbB2 (Homo sapiens, UniProt P04626); assay: Z'-LYTE biochemical assay, ErbB2 kinase inhibition
Protocol: (§1) Compounds of the present invention were assayed as inhibitors of one or more of ErbB1, ErbB2, and/or ErbB4 in a manner substantially similar to the method described by Invitrogen Corp (Invitrogen Corporation, 1600 Faraday Avenue, Carlsbad, Calif., CA; http://www.invitrogen.com/downloads/Z-LYTE_Brochure—1205.pdf) using the Z′-LYTE™ biochemical assay procedure or similar biochemical assay. The Z′-LYTE™ biochemical assay employs a fluorescence-based, coupled-enzyme format and is based on the differential sensitivity of phosphorylated and non-phosphorylated peptides to proteolytic cleavage.

ErbB4 = ErbB4 (Homo sapiens, UniProt Q15303); assay: Z'-LYTE biochemical assay, ErbB4 kinase inhibition
Protocol: as §1

ErbB4 kinase domain = biological target: T1, ErbB4 kinase domain (Homo sapiens, UniProt Q15303); assay: Mass spectrometry for ErbB4 (covalent modification); format: binding; conditions: 10-fold excess of compound, 90 minutes, MALDI
T1 construct: ErbB4 kinase domain (Upstate) was incubated with compound; purchased Upstate
Protocol: ErbB4 kinase domain (Upstate) was incubated with compound for 90 minutes at 10-fold excess of compound I-1 to protein. 1 ul aliquots of the samples (total volume of 4.24 ul) were diluted with 10 ul of 0.1% TFA prior to micro C4 ZipTipping directly onto the MALDI target using Sinapinic acid as the desorption matrix (10 mg/ml in 0.1% TFA:Acetonitrile 50:50). For intact protein mass measurement the instrument was set in Linear mode using a pulsed extraction setting of 16,952 for the myoglobin standard used to calibrate the instrument
Intact ErbB4 protein occurs at MH+ of 35850 with corresponding sinapinic (matrix) adducts occurring about 200 Da higher. A stochiometric incorporation of the compound I-1 (Mw of 410 Da) produced a new mass peak which is approximately 410 Da higher (MH+ of 36260).

TEC kinase = biological target: T2, TEC kinase (Homo sapiens, UniProt P42680); assay: Mass spectrometry for TEC kinase (tryptic digest); format: binding, homo sapien; conditions: 10× excess, 3 hrs, MALDI
T2 construct: purchased Invitrogen
T2 sequence (P42680 1-631): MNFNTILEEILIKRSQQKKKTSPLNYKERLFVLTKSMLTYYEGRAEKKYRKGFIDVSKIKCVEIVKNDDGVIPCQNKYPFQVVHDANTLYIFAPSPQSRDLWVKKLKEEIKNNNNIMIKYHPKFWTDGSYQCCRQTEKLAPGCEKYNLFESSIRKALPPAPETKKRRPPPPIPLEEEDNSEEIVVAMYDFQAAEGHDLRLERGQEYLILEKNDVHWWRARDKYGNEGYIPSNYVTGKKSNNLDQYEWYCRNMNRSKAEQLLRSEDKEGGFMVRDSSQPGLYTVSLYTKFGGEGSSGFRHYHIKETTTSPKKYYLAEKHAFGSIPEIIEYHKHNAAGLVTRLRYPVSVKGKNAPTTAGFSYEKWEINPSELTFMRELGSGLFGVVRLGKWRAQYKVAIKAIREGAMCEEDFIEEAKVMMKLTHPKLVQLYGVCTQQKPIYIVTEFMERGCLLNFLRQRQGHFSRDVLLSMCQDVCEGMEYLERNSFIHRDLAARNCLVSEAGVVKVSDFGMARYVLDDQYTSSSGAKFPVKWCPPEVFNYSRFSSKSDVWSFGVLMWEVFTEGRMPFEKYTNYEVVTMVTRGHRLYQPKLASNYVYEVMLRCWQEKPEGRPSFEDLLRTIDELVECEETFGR
Protocol: TEC kinase (45 pmols; Invitrogen) was incubated with (I-13) (450 pmols) for 3 hrs at 10× access prior to tryptic digestion. Iodoacetamide was used as the alkylating agent after compound incubation. […] For tryptic digests a 5 ul aliquot (7.5 pmols) was diluted with 15 ul of 0.1% TFA prior to micro C18 Zip Tipping directly onto the MALDI target using alpha cyano-4-hydroxy cinnamic acid as the matrix (5 mg/ml in 0.1% TFA:Acetonitrile 50:50).
As depicted in FIG. 11, the expected peptide (GCLLNFLR) to be modified was immediately evident at MH+ of 1358.65. This is the mass to be expected when compound I-13, with an adduct mass of 423.17, is added to the peptide mass of 935.51. The peptide was also quite evident in the control sample as modified by Iodacetamide at MH+ of 992.56. […] There was no evidence of any other modified peptides.
To further verify the presence of the modified peptide with compound I-13, the peptide at MH+ of 1358.65 was subjected to PSD (MS/MS) analysis. A correlational analysis with the homo sapien database identified the correct peptide modified by I-13.
For tryptic digests the instrument was set in Reflectron mode with a pulsed extraction setting of 2200. Calibration was done using the Laser Biolabs Pep Mix standard (1046.54, 1296.69, 1672.92, 2093.09, 2465.20). […]

BTK = BTK (Homo sapiens, UniProt Q06187); assay: Mass spectrometry for BTK (intact protein); format: binding; conditions: 10× excess, 1 hr, MALDI
Protocol: Intact BTK was incubated for 1 hr at a 10× fold excess of compound I-63 or I-66 to protein. Aliquots (2 ul) of the samples were diluted with 10 ul of 0.1% TFA prior to micro C4 ZipTipping directly onto the MALDI target using Sinapinic acid as the desorption matrix (10 mg/ml in 0.1% TFA:Acetonitrile 20:80). The top panels of FIGS. 12 and 13 show the mass spec trace of the intact BTK protein (m/z 81,169 Da). The bottom panels show the mass spec trace when BTK was incubated with compound I-63 (mw 424.5) or compound I-66 (mw 425.5) in FIGS. 12 and 13, respectively.

Sequence of ErbB2 (P04626 23-1255): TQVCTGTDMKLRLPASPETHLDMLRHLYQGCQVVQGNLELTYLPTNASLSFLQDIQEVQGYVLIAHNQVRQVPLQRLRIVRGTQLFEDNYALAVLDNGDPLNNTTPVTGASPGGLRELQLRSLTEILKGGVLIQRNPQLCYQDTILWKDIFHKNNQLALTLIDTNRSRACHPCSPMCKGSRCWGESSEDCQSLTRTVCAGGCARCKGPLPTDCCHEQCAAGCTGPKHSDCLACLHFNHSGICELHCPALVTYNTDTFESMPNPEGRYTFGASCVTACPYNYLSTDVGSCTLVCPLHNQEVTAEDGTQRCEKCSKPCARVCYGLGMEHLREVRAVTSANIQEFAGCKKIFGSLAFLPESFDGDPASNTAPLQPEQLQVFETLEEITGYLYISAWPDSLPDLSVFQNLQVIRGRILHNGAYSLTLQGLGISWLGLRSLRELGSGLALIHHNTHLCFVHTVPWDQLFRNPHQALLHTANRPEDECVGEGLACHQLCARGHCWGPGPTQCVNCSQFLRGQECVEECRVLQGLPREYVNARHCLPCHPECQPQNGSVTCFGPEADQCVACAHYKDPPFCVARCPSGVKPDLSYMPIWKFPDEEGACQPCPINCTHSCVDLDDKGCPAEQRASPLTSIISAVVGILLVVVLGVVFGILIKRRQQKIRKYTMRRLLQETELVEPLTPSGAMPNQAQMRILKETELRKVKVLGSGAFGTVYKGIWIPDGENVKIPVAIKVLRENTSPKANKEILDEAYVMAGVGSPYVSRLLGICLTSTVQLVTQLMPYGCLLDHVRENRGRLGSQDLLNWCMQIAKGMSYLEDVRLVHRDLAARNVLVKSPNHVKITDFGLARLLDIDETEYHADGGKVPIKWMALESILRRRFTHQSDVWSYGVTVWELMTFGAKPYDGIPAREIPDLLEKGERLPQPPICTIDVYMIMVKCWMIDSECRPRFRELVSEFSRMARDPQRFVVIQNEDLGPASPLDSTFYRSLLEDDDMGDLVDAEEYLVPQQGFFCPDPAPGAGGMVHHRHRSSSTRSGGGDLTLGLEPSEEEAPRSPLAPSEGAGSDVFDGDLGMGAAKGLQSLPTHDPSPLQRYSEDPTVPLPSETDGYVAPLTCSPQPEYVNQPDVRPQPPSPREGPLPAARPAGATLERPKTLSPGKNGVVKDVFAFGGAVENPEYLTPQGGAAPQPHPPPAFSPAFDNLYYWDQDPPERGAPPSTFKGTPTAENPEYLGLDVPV
Sequence of ErbB1 (P00533 25-1210): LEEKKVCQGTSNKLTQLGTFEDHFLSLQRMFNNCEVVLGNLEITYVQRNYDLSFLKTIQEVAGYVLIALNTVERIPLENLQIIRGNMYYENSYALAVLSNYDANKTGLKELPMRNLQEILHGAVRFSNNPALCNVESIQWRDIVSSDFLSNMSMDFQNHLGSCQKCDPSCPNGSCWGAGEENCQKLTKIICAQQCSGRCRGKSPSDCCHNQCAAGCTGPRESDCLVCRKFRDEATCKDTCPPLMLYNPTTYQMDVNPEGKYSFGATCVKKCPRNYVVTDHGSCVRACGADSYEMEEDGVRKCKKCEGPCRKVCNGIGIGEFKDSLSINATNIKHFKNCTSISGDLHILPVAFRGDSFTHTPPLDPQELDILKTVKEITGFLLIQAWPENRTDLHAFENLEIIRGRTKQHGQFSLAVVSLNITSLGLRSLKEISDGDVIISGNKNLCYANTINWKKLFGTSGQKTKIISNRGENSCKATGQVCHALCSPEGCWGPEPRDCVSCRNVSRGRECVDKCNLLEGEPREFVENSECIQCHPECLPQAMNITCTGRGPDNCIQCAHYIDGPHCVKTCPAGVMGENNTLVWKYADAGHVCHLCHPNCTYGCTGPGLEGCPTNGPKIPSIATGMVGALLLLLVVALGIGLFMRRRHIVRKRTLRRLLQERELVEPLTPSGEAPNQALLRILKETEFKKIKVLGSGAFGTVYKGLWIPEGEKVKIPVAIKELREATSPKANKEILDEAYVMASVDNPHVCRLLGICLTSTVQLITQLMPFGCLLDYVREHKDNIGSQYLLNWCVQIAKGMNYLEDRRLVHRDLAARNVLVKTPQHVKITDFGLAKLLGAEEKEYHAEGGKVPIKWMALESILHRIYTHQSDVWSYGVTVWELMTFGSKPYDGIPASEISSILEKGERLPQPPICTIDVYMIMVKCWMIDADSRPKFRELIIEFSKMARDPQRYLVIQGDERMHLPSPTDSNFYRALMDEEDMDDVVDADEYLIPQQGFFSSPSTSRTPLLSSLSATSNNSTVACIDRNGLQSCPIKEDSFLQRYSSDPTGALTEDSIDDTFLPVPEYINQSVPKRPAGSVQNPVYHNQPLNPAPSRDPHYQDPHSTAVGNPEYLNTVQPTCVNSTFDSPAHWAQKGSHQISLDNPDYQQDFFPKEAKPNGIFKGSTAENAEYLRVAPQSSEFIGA
Sequence of ErbB4 (Q15303 26-1308): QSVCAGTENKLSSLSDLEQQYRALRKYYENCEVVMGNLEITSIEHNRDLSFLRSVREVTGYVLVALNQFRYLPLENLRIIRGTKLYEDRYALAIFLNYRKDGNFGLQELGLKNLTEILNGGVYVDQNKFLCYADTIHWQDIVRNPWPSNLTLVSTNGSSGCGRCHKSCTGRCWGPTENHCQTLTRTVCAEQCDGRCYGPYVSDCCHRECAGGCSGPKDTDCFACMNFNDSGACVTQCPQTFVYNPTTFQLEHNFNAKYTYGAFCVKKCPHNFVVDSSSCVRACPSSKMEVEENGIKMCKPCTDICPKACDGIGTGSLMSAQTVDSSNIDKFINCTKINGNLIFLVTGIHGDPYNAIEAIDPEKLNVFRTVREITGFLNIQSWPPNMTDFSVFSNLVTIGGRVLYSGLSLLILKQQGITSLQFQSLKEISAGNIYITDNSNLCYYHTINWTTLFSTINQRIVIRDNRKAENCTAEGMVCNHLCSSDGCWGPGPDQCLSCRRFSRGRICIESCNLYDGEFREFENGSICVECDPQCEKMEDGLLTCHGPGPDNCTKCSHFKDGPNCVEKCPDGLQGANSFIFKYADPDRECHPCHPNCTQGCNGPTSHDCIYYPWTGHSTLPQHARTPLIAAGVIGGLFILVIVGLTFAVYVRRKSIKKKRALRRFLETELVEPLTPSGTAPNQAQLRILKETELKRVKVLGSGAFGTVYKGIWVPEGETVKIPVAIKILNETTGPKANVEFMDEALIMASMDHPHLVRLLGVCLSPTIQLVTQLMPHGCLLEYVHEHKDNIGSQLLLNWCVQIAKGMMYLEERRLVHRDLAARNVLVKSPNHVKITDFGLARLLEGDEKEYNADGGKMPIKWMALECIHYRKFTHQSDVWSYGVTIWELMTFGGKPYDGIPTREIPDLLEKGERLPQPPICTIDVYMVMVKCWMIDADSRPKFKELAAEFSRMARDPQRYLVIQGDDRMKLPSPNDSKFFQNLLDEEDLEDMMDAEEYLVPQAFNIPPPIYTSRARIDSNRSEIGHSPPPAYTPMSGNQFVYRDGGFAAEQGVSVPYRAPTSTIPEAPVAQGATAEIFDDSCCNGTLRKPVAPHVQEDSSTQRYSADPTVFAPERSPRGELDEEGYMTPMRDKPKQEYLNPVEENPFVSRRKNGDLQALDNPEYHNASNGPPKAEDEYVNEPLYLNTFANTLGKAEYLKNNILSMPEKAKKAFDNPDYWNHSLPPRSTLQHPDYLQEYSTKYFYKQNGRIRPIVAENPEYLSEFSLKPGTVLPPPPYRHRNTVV
Sequence of BTK (Q06187 whole entry): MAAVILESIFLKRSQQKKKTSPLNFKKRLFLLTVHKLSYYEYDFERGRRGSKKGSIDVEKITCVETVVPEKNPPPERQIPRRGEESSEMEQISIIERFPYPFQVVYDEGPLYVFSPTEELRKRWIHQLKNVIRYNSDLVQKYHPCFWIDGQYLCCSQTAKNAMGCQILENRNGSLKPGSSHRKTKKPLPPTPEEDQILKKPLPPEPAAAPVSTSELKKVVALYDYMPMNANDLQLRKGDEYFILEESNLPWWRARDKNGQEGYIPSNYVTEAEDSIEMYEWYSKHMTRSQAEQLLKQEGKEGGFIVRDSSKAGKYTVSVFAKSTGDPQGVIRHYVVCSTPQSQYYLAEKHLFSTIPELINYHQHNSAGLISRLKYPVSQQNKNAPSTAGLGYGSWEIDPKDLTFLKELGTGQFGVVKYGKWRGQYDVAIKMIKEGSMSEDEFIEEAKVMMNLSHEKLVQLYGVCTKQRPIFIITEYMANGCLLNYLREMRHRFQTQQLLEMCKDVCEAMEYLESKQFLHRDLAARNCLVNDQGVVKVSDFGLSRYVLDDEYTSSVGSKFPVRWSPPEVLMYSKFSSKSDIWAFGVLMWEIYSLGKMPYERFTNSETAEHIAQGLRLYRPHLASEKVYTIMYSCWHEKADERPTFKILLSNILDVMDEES
T1 sequence (Q15303 718-985 limits assumed): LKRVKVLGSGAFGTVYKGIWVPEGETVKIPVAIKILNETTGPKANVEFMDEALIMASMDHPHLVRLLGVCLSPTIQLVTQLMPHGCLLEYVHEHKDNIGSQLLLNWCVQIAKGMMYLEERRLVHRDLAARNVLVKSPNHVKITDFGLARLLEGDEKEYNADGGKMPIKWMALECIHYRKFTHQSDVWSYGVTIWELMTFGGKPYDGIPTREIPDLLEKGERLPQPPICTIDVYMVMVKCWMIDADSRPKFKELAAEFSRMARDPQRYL

## C=CC(=O)Nc1cccc(Nc2cc(Nc3cccc(Br)c3)ncn2)c1 [I-1, N-{3-[6-(3-bromophenylamino)-pyrimidin-4-ylamino]-phenyl}-2-propenamide]
ErbB1; @ 10 nM
  inhibition at 0.01 µM: 99%
ErbB2; @ 100 nM
  inhibition at 0.1 µM: 61%
ErbB2
  inhibition at 1 µM: 76%
ErbB4; @ 100 nM
  inhibition at 0.1 µM: 64%
ErbB4; @ 1 μM
  inhibition at 1 µM: 86%
ErbB4 kinase domain
  modification of ErbB4 by intact mass: covalent modification of ErbB4

## C=CC(=O)Nc1cccc(Nc2cc(Nc3ccc(Oc4ccccc4)cc3)ncn2)c1 [I-13, N-{3-[6-(4-phenoxyphenylamino)-pyrimidin-4-ylamino]phenyl}-2 propenamide]
ErbB1; @ 1 μM
  inhibition at 1 µM: 92%
ErbB2
  inhibition at 1 µM: 98%
TEC kinase
  modification of TEC peptide GCLLNFLR in tryptic digest: reaction was complete

## C=CC(=O)Nc1cccc(Nc2cc(Nc3ccc(Oc4ccccc4)cc3)ncn2)n1 [I-63]
BTK
  modification of intact BTK by mass shift: complete modification of BTK

## C=CC(=O)Nc1cccc(Nc2cc(Oc3ccc(Oc4ccccc4)cc3)ncn2)n1 [I-66]
BTK
  modification of intact BTK by mass shift: complete modification of BTK
